From ChEMBL document CHEMBL4842316, “Structure-based bioisosterism design of thio-benzoxazepinones as novel necroptosis inhibitors” (Eur J Med Chem, 2021)
Active and inactive are the calls of the source. The rule behind the calls is not given here.

Key:
HT-29 [1] = test: Anti-necroptotic activity in human HT-29 cells assessed as inhibition of hTNFalpha/Z-VAD-fmk (TSZ)-induced necroptosis by measuring increase in cell viability measured after 8 to 10 hrs by celltiter-glo luminescent cell viability assay; assay type: functional, cell-based
[2] = Cytotoxicity against human HT-29 cells assessed as reduction in cell viability measured after 8 to 10 hrs by celltiter-glo luminescent cell viability assay; assay type: cell-based; settings: time 8-10 hrs
[3] = target: T1, Receptor-interacting serine/threonine-protein kinase 1 (Homo sapiens) (UniProt Q13546); test: Inhibition of RIPK1 phosphorylation in Z-VAD-fmk (TSZ)-induced human HT-29 cells measured at 4 hrs by immunoblotting analysis; assay type: cell-based; settings: dose 0.001-1 µM
T1 sequence (whole entry): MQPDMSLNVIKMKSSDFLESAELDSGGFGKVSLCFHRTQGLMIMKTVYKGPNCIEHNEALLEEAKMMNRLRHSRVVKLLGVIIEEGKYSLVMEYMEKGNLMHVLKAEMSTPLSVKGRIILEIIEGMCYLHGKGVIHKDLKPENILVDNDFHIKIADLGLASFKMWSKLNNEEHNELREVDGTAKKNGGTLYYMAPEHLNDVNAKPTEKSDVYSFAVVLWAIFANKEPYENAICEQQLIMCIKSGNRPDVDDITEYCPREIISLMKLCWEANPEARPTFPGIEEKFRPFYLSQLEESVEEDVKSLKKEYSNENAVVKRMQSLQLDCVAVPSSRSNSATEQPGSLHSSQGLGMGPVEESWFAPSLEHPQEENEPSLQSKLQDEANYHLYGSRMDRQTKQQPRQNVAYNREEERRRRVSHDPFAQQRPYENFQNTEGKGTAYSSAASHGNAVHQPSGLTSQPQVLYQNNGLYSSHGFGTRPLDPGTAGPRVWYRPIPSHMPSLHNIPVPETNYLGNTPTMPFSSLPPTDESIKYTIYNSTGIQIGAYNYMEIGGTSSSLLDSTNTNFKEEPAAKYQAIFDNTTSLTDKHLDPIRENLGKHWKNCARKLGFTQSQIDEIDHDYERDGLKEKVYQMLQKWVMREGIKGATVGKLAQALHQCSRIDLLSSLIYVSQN

[4] = target: T1, Receptor-interacting serine/threonine-protein kinase 1 (Homo sapiens); test: Inhibition of RIPK1 phosphorylation in Z-VAD-fmk (TSZ)-induced human HT-29 cells at 1 uM measured up to 4 hrs by immunoblotting analysis; assay type: cell-based; settings: time hrs <=4
[5] = target: Receptor-interacting serine/threonine-protein kinase 3 (Homo sapiens) (UniProt Q9Y572); test: Inhibition of RIPK3 phosphorylation in Z-VAD-fmk (TSZ)-induced human HT-29 cells at 1 uM measured up to 4 hrs by immunoblotting analysis; assay type: cell-based; settings: time hrs <=4
[6] = target: T2, Mixed lineage kinase domain-like protein (Homo sapiens) (UniProt Q8NB16); test: Inhibition of MLKL phosphorylation in Z-VAD-fmk (TSZ)-induced human HT-29 cells measured at 4 hrs by immunoblotting analysis; assay type: cell-based; settings: dose 0.001-1 µM
T2 sequence (whole entry): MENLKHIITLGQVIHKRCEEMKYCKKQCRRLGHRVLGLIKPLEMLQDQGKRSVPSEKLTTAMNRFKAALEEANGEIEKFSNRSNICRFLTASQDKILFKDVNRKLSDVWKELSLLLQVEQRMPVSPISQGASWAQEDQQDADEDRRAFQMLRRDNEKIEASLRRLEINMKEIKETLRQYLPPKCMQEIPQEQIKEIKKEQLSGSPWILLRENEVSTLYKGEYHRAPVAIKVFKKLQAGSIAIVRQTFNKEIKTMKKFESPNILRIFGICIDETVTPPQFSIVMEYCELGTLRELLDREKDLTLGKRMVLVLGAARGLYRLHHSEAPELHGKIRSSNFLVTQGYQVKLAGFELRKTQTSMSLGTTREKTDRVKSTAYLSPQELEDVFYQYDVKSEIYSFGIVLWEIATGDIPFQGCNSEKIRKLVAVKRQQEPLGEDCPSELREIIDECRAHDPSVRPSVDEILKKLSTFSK

[7] = target: T2, Mixed lineage kinase domain-like protein (Homo sapiens); test: Inhibition of MLKL phosphorylation in Z-VAD-fmk (TSZ)-induced human HT-29 cells at 1 uM measured up to 4 hrs by immunoblotting analysis; assay type: cell-based; settings: time hrs <=4
[8] = target: Receptor-interacting serine/threonine-protein kinase 3 (Homo sapiens) (UniProt Q9Y572); test: Inhibition of RIPK3 phosphorylation in Z-VAD-fmk (TSZ)-induced human HT-29 cells measured at 4 hrs by immunoblotting analysis; assay type: cell-based; settings: dose 0.001-1 µM
[9] = target: Receptor-interacting serine/threonine-protein kinase 3 (Homo sapiens) (UniProt Q9Y572); test: Inhibition of RIPK3 in Z-VAD-fmk (TSZ)-induced human HT-29 cells assessed as reduction in RIPK1-RIPK3 necrosome formation at 1 uM measured after 6 hrs by Western blot analysis; assay type: cell-based
[10] = target: T1, Receptor-interacting serine/threonine-protein kinase 1 (Homo sapiens); test: Inhibition of RIPK1 in Z-VAD-fmk (TSZ)-induced human HT-29 cells assessed as reduction in RIPK1-RIPK3 necrosome formation at 1 uM measured after 6 hrs by Western blot analysis; assay type: cell-based
HT-29 [11] = test: Anti-necroptotic activity in human HT-29 cells assessed as inhibition of Z-VAD-fmk (TSZ)-induced necroptosis by measuring increase in cell viability measured after 8 to 10 hrs by celltiter-glo luminescent cell viability assay; assay type: functional, cell-based; settings: time 8-10 hrs

Chain of Receptor-interacting serine/threonine-protein kinase 3 (Homo sapiens) (Q9Y572 whole entry, looked up, the tested form may be a part): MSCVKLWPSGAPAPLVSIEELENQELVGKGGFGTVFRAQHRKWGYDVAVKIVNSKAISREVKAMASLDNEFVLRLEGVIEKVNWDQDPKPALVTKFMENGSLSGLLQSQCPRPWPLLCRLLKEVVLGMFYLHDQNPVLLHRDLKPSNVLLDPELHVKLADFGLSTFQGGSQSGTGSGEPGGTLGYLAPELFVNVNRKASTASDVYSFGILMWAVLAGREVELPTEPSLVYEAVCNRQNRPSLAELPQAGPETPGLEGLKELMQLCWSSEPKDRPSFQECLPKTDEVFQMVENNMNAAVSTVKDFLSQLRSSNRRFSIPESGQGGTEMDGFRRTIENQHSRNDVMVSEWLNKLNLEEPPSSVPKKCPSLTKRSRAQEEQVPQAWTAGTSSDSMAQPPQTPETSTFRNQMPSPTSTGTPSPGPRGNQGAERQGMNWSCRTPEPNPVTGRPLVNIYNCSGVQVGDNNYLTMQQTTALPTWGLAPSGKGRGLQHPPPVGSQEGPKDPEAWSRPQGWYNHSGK

Compound | EC50 (HT-29 [1]) | CC50 [2] | also measured
[2H]C([2H])([2H])N1C(=S)[C@H](NC(=O)c2n[nH]c(Cc3ccccc3)n2)COc2ccccc21 | 0.0763 µM | > 50 µM | –
Cc1ccc2c(n1)OC[C@@H](NC(=O)c1n[nH]c(Cc3ccccc3)n1)C(=S)N2C | 2.02 µM | > 50 µM | –
CCN1C(=S)[C@@H](NC(=O)c2n[nH]c(Cc3ccccc3)n2)COc2ccccc21 | 1.51 µM | > 50 µM | –
CN1C(=S)[C@H](NC(=O)c2n[nH]c(Cc3ccccc3)n2)COc2ccccc21 | 0.0226 µM | > 50 µM | inhibition [3]: Dose-Dependent Effect; inhibition [4]: Active; inhibition [5]: Active; inhibition [6]: Dose-Dependent Effect; inhibition [7]: Active; inhibition [8]: Dose-Dependent Effect; inhibition [9]: Active; inhibition [10]: Active; Activity (HT-29 [11]): Dose-Dependent Effect
O=C(N[C@@H]1COc2ccccc2NC1=S)c1n[nH]c(Cc2ccccc2)n1 | 8.84 µM | > 50 µM | –
Cc1cnc2c(c1)N(C)C(=S)[C@H](NC(=O)c1n[nH]c(Cc3ccccc3)n1)CO2 | 3.4 µM | > 50 µM | –
CCN1C(=S)[C@H](NC(=O)c2n[nH]c(Cc3ccccc3)n2)COc2ccccc21 | 6.68 µM | > 50 µM | –
CN1C(=S)[C@@H](NC(=O)c2n[nH]c(Cc3ccccc3)n2)COc2ncccc21 | > 10 µM | > 50 µM | –
CN1C(=O)[C@@H](NC(=O)c2n[nH]c(Cc3ccccc3)n2)COc2ncccc21 | > 10 µM | > 50 µM | –
Cc1ccc2c(n1)OC[C@H](NC(=O)c1n[nH]c(Cc3ccccc3)n1)C(=O)N2C | 0.363 µM | > 50 µM | –
Cc1cnc2c(c1)N(C)C(=S)[C@@H](NC(=O)c1n[nH]c(Cc3ccccc3)n1)CO2 | 0.144 µM | > 50 µM | –
CN1C(=O)[C@H](NC(=O)c2nnc(Cc3ccccc3)[nH]2)COc2ccccc21 | 0.279 µM | > 50 µM | –
CN1C(=S)[C@@H](NC(=O)c2n[nH]c(Cc3ccccc3)n2)COc2cccnc21 | 0.0137 µM | > 50 µM | –
Cc1cnc2c(c1)N(C)C(=O)[C@H](NC(=O)c1n[nH]c(Cc3ccccc3)n1)CO2 | > 10 µM | > 50 µM | –
Cc1cnc2c(c1)N(C)C(=O)[C@@H](NC(=O)c1n[nH]c(Cc3ccccc3)n1)CO2 | 0.243 µM | > 50 µM | –
Cc1ccc2c(n1)OC[C@@H](NC(=O)c1n[nH]c(Cc3ccccc3)n1)C(=O)N2C | 6.5 µM | > 50 µM | –
CN1C(=S)[C@H](NC(=O)c2n[nH]c(Cc3ccccc3)n2)COc2ncccc21 | > 10 µM | > 50 µM | –
CN1C(=O)[C@H](NC(=O)c2n[nH]c(Cc3ccccc3)n2)COc2cccnc21 | 0.81 µM | > 50 µM | –
CN1C(=O)[C@H](NC(=O)c2n[nH]c(Cc3ccccc3)n2)COc2ncccc21 | > 10 µM | > 50 µM | –
CN1C(=S)[C@H](NC(=O)c2n[nH]c(Cc3ccccc3)n2)COc2cccnc21 | 0.0186 µM | > 50 µM | –
CN1C(=O)[C@@H](NC(=O)c2nnc(Cc3ccccc3)[nH]2)COc2ccccc21 [GSK2982772] | 0.0036 µM | > 50 µM | –
CN1C(=O)[C@@H](NC(=O)c2nnc(Cc3ccccc3)[nH]2)COc2cccnc21 [ECLITASERTIB] | 0.0154 µM | > 50 µM | –
[2H]C([2H])([2H])N1C(=S)[C@@H](NC(=O)c2n[nH]c(Cc3ccccc3)n2)COc2ccccc21 | 0.0074 µM | > 50 µM | –
Cc1ccc2c(n1)OC[C@H](NC(=O)c1n[nH]c(Cc3ccccc3)n1)C(=S)N2C | 0.122 µM | > 50 µM | –
CN1C(=S)[C@@H](NC(=O)c2n[nH]c(Cc3ccccc3)n2)COc2ccccc21 | 0.0028 µM | > 50 µM | inhibition [3]: Dose-Dependent Effect; inhibition [4]: Active; inhibition [5]: Active; inhibition [6]: Dose-Dependent Effect; inhibition [7]: Active; inhibition [8]: Dose-Dependent Effect; inhibition [9]: Active; inhibition [10]: Active; Activity (HT-29 [11]): Dose-Dependent Effect
O=C(N[C@H]1COc2ccccc2NC1=S)c1n[nH]c(Cc2ccccc2)n1 | 0.736 µM | > 50 µM | –
